Data as given in US20140297199A1, “DRUG SCREENING METHOD AND USES THEREOF” (COLD SPRING HARBOR LABORATORY, priority 2011, published 2014).
Entries after “also recorded” stand apart in the source; their conditions may differ.

Legend:
[1] = test system: c-fos-GFP expression in the transgenic c-fos-GFP mouse brain; assay: c-fos-GFP induction in transgenic c-fos-GFP mouse brain, whole-mount two-photon microscopy (Example 3); type: in vivo; conditions: three hours, vs saline, one animal per treatment
Description: High-throughput whole-brain imaging of an immediate early gene (IEG) induction was used in transgenic “indicator” mice that express GFP from specific IEG promoters, such as c-fos and Arc promoters in c-fos-GFP and Arc-GFP transgenic mice ((Barth et al., J Neurosci 24, 6466-6475 (2004); Grinevich et al., Journal of Neuroscience Methods 184, 25-36 (2009)). In these mice, GFP represents a readily detectable surrogate for the expression of the native gene.
Whole-mount two-photon microscopy was used for automated mouse brain imaging. The instrument works as follows: First, a fixed mouse brain embedded in an agar block is placed in a water bath on top of a computer controlled x-y-z stage. The stage moves the brain under the objective, so that the top is imaged as a mosaic of individual fields of view (“tiles”). […]
To validate the entire pipeline of data processing, the trained neural networks were applied to extract c-fos-GFP signal in brains of two mice, one injected with saline and the other with haloperidol at 1 mg/kg (FIG. 27). Three hours later, the mice were euthanized, their brains imaged by whole-mount two-photon microscopy, and c-fos-GFP-positive cells were computationally detected and visualized as a three-dimensional representation of intensity centroids (FIG. 17).

[2] = test system: c-fos-GFP expression in the whole mouse brain; assay: c-fos-GFP pharmacomap by STP tomography, haloperidol vs saline (Example 5); type: in vivo; conditions: 3 hours
Description: This example analyzes the effects of antipsychotic drugs on neural circuit activity in the whole mouse brain. The method comprises the following steps: (1) an automated whole-brain microscopy, STP tomography, was used to image brains of c-fos-GFP mice, which express GFP as a marker for native c-fos; (2) the distribution of the activated c-fos-GFP-positive neurons was computationally detected by convolutional neural networks; (3) the processed datasets were warped and registered in a 3D reference brain and voxelized for statistical comparisons.
Transgenic c-fos-GFP mice (Reijmers et al., Science 317:1230-1233 (2007)), expressing GFP as a surrogate marker for native c-fos, was injected with intraperitoneally with haloperidol (1 mg/kg) or saline (control). The mice were returned to their home cage and left undisturbed for 3 hours, a time period needed for the induction and fluorophore maturation of c-fos-GFP. Next, the mice were deeply anesthetized and euthanized by intra-cardiac perfusion with saline and paraformaldehyde for brain fixation. The mice were decapitated and the brain was extracted, postfixed and embedded in agar for STP tomography. Three PMTs (C1-C3) can be used for multi-color imaging. […]

[3] = test system: c-fos-GFP expression in the mouse brain; assay: Haloperidol dose-response c-fos-GFP pharmacomaps (Example 10); type: in vivo
Description: For example, before injection, male mice (8 weeks old) are single-housed for five days in order to limit the variability of the baseline c-fos-GFP expression.
For example, the datasets are represented as the number of centroids (c-fos-GFP cells) lying within an evenly spaced grid of 450×650×300 elements (voxels), each of size 20×20×50 microns.
Drugs have different effects and side effects at different dosages.

[4] = test system: c-fos-GFP expression in the mouse brain; assay: c-fos-GFP pharmacomaps of three antipsychotics at a moderate dosage (Example 9); conditions: 5 mouse brains per drug
[5] = haloperidol 0.25, risperidone 1.0, aripiprazole 1.0 mg/kg, vs saline-injected control

O=C(CCCN1CCC(O)(c2ccc(Cl)cc2)CC1)c1ccc(F)cc1 [haloperidol]
c-fos-GFP-positive cells per coronal section, caudal sections ([1]; 1 mg/kg, preliminary quantitation): increased numbers of c-fos-GFP-positive cells in many caudal coronal sections; also recorded: broad distribution of haloperidol-evoked c-fos-GFP induction in the caudal sections
brain regions with c-fos-GFP induction ([1]; i.p. 1 mg/kg): expected induction of c-fos-GFP in the striatum and lateral septum; also recorded: expected strong induction of c-fos-GFP in the caudate putamen; also recorded: Strong labeling is induced in striatum (A) and lateral septum (B)
previously identified brain regions detected as statistically different vs saline ([2]; 1 mg/kg i.p., n=7 vs saline n=7, negative binomial regressions, FDR 0.01): Medial prefrontal Cx, Cingulate Cx, Piriform Cx, Major Islands of Calleja, Nc Accumbens (whole, shell, core), Lateral septum, Striatum (whole), Medial preoptic area, Paraventricular nucleus, Bed nucleus of stria terminalis, Medial thalamus
number of c-fos-GFP cells in the brain (c-fos-GFP pharmacomap) ([2]; 1 mg/kg intraperitoneally, saline brain 176,771): 545,838 c-fos-GFP cells
brain regions activated (pharmacomap A) ([3]; 0.05 mg/kg (low)): activated dorsomedial hypothalamus (HYP), ACB, and CP
brain regions activated (pharmacomap B) ([3]; 0.25 mg/kg (medium)): activated the same structures as shown in pharmacomap A, plus OT, LS and PL
brain regions activated (pharmacomap C) ([3]; 1.0 mg/kg (high)): more widespread activation, including, in addition, prelimbic (PL), infralimbic (IL), and lateral entorhinal (ENT) areas, BST, central amygdala (CEA) and PVT
numbers of activated areas across dosages ([3]; 0.05, 0.25 and 1.0 mg/kg): increasing numbers of activated areas observed with increasing dosage
strength of c-Fos induction within commonly activated regions (caudate putamen and nucleus accumbens) ([3]; 0.05, 0.25 and 1.0 mg/kg, data not shown): significantly increased with increasing dosage
brain regions activated (pharmacomap) ([4]; haloperidol 0.25 mg/kg, risperidone 1.0 mg/kg, aripiprazole 1.0 mg/kg, vs saline): activated a major portion of the caudate putamen (CP) and nucleus accumbens (ACB), as well as the olfactory tubercle (OT), prelimbic cortex (PL), lateral septum (LS) and dorsomedial hypothalamus (HYP)
c-fos-GFP activation, Anterior cingulate cortex (ACAd) [4, 5]: up
c-fos-GFP activation, Anterior cingulate cortex (ACAv) [4, 5]: 0
c-fos-GFP activation, Basal, Central, Cortic. Amydgala (AMG) [4, 5]: 0
c-fos-GFP activation, Bed nucleus of Stria Terminalis (BST) [4, 5]: 0
c-fos-GFP activation, Caudate-putamen (CP, dorso-medial) [4, 5]: up
c-fos-GFP activation, Caudate-putamen (CP, ventro-medial) [4, 5]: up
c-fos-GFP activation, Caudoputamen (CP, dorsolateral) [4, 5]: up
c-fos-GFP activation, Caudoputamen (CP, ventrolateral) [4, 5]: up
c-fos-GFP activation, Central medial thalamic nucleus [4, 5]: 0
c-fos-GFP activation, Claustrum (CLA) [4, 5]: 0
c-fos-GFP activation, Dorsomedial hypoth. (HYP) [4, 5]: up
c-fos-GFP activation, Gostatory Cx (GU) [4, 5]: 0
c-fos-GFP activation, Hippocampus: CA1, CA2, CA3 (HF) [4, 5]: 0
c-fos-GFP activation, Hippocampus: DG [4, 5]: 0
c-fos-GFP activation, Hypothalamus, ventromedial nuclei [4, 5]: 0
c-fos-GFP activation, Infralimbic cortex (IL) [4, 5]: up
c-fos-GFP activation, Insular area, agranular [4, 5]: 0
c-fos-GFP activation, Lateral Septum (LS) [4, 5]: up
c-fos-GFP activation, Lateral Spetal Nucl, dorsal part [4, 5]: 0
c-fos-GFP activation, Midline Thalamus (Nucl Reuniens, RE) [4, 5]: 0
c-fos-GFP activation, Midline Thalamus (PVT) [4, 5]: 0
c-fos-GFP activation, Motor area, primary (MOp) [4, 5]: 0
c-fos-GFP activation, Motor area, secondary (MOs) [4, 5]: 0
c-fos-GFP activation, Nucleus Accumbens (ACB), core [4, 5]: up
c-fos-GFP activation, Nucleus Accumbens (ACB), shell [4, 5]: up
c-fos-GFP activation, Nucleus Accumbens (ACB), whole [4, 5]: up
c-fos-GFP activation, Olfactory tubercle (OT) [4, 5]: up
c-fos-GFP activation, Orbital cortex ventral (VO) [4, 5]: 0
c-fos-GFP activation, Orbital cx (ORB), lateral [4, 5]: 0
c-fos-GFP activation, Orbital cx (ORB), medial [4, 5]: up
c-fos-GFP activation, Piriform cx (PIR) [4, 5]: 0
c-fos-GFP activation, Prelimbic cx (PL) [4, 5]: up
c-fos-GFP activation, RSPd, v, d and agl [4, 5]: 0
c-fos-GFP activation, Red nucleus (RN) [4, 5]: 0
c-fos-GFP activation, Somatosensory cx, primary [4, 5]: 0
c-fos-GFP activation, Striatum, ventro-lateral [4, 5]: 0
c-fos-GFP activation, Superior Colliculus (SC) [4, 5]: 0
c-fos-GFP activation, Temporal cortex [4, 5]: 0
c-fos-GFP activation, Ventromedial Thalamus (caudally) [4, 5]: 0
c-fos-GFP activation, Zona Inserta [4, 5]: 0
